Source: US8993635B2, “Method of increasing or maintaining the reproductive performance of sows” (Pork CRC Ltd, priority 2010, dated 2015)
Marks after values point to notes of the source that are not given here.

Columns and labels:
[1] = tested on: Large White/Landrace parity 1 sows; experiment: Paylean (ractopamine) treatment during first lactation: maternal catabolism, post-weaning fertility, piglet growth, milk composition (Example 2); assay type: in vivo, pig; settings: for MMD loss in lactation (mm): maximum eye muscle depth; for Live weight loss in lactation (kg) Days 1-7 / Live weight loss in lactation (kg) Days 8-14 / Live weight loss in lactation (kg) Days 15-20: parity 1 sows, ractopamine 10 ppm days 1-13, 20 ppm from day 14 until mating; for 2nd litter size: Born alive / 2nd litter size: Total born: second litter; for Proportion sows exhibiting oestrus: within 10 days of weaning
Description: This experiment was conducted at the University of Adelaide's Pig and Poultry Production Institute (PPPI) at Roseworthy, South Australia, with approval from the animal ethics committees of Primary Industries and Resources South Australia and The University of Adelaide. The experiment used sixty Large White/Landrace parity 1 sows, and was conducted in four replicates: replicates one and two were run in October and November 2006, respectively (spring); and replicates three and four were run in March and April 2007, respectively (autumn).
At entry into the farrowing shed, Sixty Large White/Landrace first parity sows were weighed, and P2 backfat and maximum eye muscle depth (MMD) measured. Sows were then stratified according to both liveweight and body composition and allocated to one of two treatment groups (n=30 sows). One group (Control) received a standard lactation diet (0.71 g avail. lys/MJ DE) throughout lactation, whilst the other group (Ractopamine) received the same standard lactation diet but supplemented with ractopamine at 10 parts per million (ppm) from days 1-13 of lactation and 20 ppm from day 14 of lactation until mating. Dietary treatments commenced on day 1 of lactation (Day 0=first 24 hours after farrowing). During lactation, the amount of feed offered each day was stepped up gradually, reaching 6 kg/day by day 7 of lactation, and was fed over three meals per day, with daily feed disappearance recorded for each sow. Weaning took place 21 days after farrowing, and between weaning and first Al sows received 3 kg/day of their respective diets. Sows were weighed, and P2 backfat and MMD measured on days 1, 7, 14 and 20 of lactation. Gilts were weighed prior to being fed, and P2 backfat and MMD were measured over the last rib 65 mm down from the vertebrae by an experienced commercial operator using a 3.5 MHz linear probe (Ausonics Impact). Litter size was standardised to 9 piglets within 24 hours of farrowing, with piglets receiving only maternal milk as their feed source and weighed on days 1, 7, 13 and 20 of their mother's lactation. Maternal milk samples were collected on days 3, 13 and 20 of lactation and analysed for fat and protein content.
After weaning, sows were housed in groups of three or four. Boar exposure commenced on the fourth day after weaning, consisted of 15 minutes of full, physical boar contact and was conducted in a detection mating area (DMA). At their first oestrus after weaning, sows two artificial inseminations (AIs), 24 hours apart.
All Als took place in the DMA, with fence-line contact with a boar during the procedure. Inseminations were performed as per standard industry practice using disposable spirette catheters, with each insemination consisting of an 80 ml dose of fresh, extended semen (3×10^9 spermatozoa per inseminate; <4 days old). Semen used for this experiment was purchased from a commercial artificial insemination collection centre (SABOR Pty. Ltd, Clare, South Australia). Sows not detected in oestrus by 10 days after weaning were described as anoestrous.

[2] = tested on: large white first parity sows; experiment: Supplementary ractopamine in the lactation diet: sow weight loss and subsequent reproductive performance (Example 1); assay type: in vivo, pig
Source text: Sixty large white first parity sows were allocated to one of two treatment groups (n=30 sows/treatment). One group (CONT) received a standard lactation diet (0.71 g available lysine/MJ digestible energy (DE)) throughout lactation, whilst the other group (RAC) received the standard lactation diet supplemented with ractopamine at 10 ppm from d 1-13 of lactation and 20 ppm from d 14 of lactation until mating. The amount of feed offered each day was stepped up gradually, reaching 5 kg/day by d 4 of lactation, and maintained at this level for the rest of lactation. Sows were weighed and P2 backfat measured on d 1, 14 and 20 of lactation, the litter size standardised to 9 piglets within 24 hours of lactation. Sows were weaned on d 21 of lactation, with boar exposure commencing 4 d after weaning and sows artificially inseminated twice at their first oestrus post-weaning. Subsequent reproductive performance of all sows was recorded: weaning-to-oestrus interval (WOI) and second litter size. Sows failing to epress eostrus within 10 d of weaning were deemed to be anoestrus and allocated a nominal weaning-to-oestrus interval of 15 d. A general analysis of variance model was used to study the effects of RAC supplementation on sow weight loss during lactation and subsequent reproductive performance.

Structure (SMILES): CC(CCc1ccc(O)cc1)NCC(O)c1ccc(O)cc1 (racemic) [Ractopamine, ractopamine]
- Proportion mated sows pregnant ([1]; after two AIs at first oestrus post-weaning): 0.91
- P2 backfat loss in lactation (mm) [1]: lost significantly less
- P2 backfat loss in lactation (mm) ([1]; listed as Ractoparnine): 2.44^b mm
- MMD loss in lactation (mm) [1]: similar
- MMD loss in lactation (mm) ([1]; listed as Ractoparnine): 2.1 mm
- Live weight loss in lactation (kg) Days 1-7 [1]: similar
- Live weight loss in lactation (kg) Days 8-14 [1]: similar
- Live weight loss in lactation (kg) Days 15-20 [1]: lost significantly less
- Live weight loss in lactation (kg) Days 1-7 ([1]; listed as Ractoparnine): 2.43 kg
- Live weight loss in lactation (kg) Days 8-14 ([1]; listed as Ractoparnine): 2.98 kg
- Live weight loss in lactation (kg) Days 15-20 ([1]; listed as Ractoparnine): 0.66^b kg
- 2nd litter size: Born alive [1]: tendency (P=0.064) for the number of piglets born alive-at the second litter to be higher
- 2nd litter size: Total born [1]: numerical, but not significant, increase
- 2nd litter size: Born alive ([1]; listed as Ractoparnine): 9.48**
- 2nd litter size: Total born ([1]; listed as Ractoparnine): 9.66
- Weaning-to-oestrus (d) ([1]; sows not in oestrus within 10 days assigned nominal 15 days): similar
- Weaning-to-oestrus ([1]; sows not in oestrus within 10 days assigned nominal 15 days, listed as Ractoparnine): 6.39 days
- Proportion sows exhibiting oestrus [1]: numerical, but not significant, reduction in the proportion of Control compared to Ractopamine sows
- Proportion sows exhibiting oestrus ([1]; listed as Ractoparnine): 0.95
- weaning-to-oestrus interval (WOI) ([2]; anoestrus sows allocated nominal 15 d): 6.4 ± 0.63 days
- Lactation weight loss (kg) Days 1-14 ([2]; first parity sows, ractopamine 10 ppm d 1-13, 20 ppm from d 14): 4.6 ± 1.41 kg
- Piglets born at second litter, Total born ([2]; subsequent (second) litter): 9.7 ± 0.54
- proportion of sows exhibiting oestrus within 10 d of weaning ([2]; within 10 d of weaning): 0.95±0.08
